Data set [1] is described as follows: Pharmacokinetic studies in rats. The following applies: for % F / Cmax / T1/2: male rats, oral dose 25 mg/kg; for oral bioavailability / oral pharmacokinetics in rats (in words): oral dosing. The format is in vivo, rat. On the procedure:
Pharmacokinetic studies on MDM2 inhibitors were carried out in rat. For comparison, the MDM2 inhibitor, AT-219, was also studied.

Data set [2] in a line: In vitro microsomal stability, rat. The format is in vitro ADME. The following applies: for microsomal stability (in words) / % of compound remaining when incubated in rat liver microsomes with NADPH: rat liver microsomes.
For data set [3], the system named is Isogenic HCT-116 colon cancer cell lines. In words: cells. The class given is cell-based. Conditions: Homo sapiens, cell growth.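 Also: cells grown in 96-well plates in McCoy's 5A medium with 10% FBS, exposed to compound for 4 days.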
Experimental: Cells were seeded in 96-well flat bottom cell culture plates at a density of 2−3×10^3 cells/well with compounds and incubated for 4 days.
The target of data set [4] is recombinant human His-tagged MDM2 protein (residues 1-118) (Homo sapiens (Human), UniProt Q00987). In words: Fluorescence-polarization MDM2 binding assay.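 Also: fluorescence polarization read after three hours of incubation in potassium phosphate buffer containing bovine gamma globulin and Triton X-100.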 Conditions: Table 19A; FP binding assay; read-out: MDM2 IC50.
For data set [5], the system named is cancer cell lines with wild-type p53 / mutated or deleted p53 (ATCC). In words: Cell growth assay (WST-8), other cancer cell lines. The format is cell-based. The following applies: Homo sapiens. (Tetrazolium assays rely on reduction of a dye to a coloured formazan, in cell work by metabolically active cells.)
Data set [6] is described as follows: In vitro microsomal stability, human. The format is in vitro ADME.
Setting [7] is: HCT-116, read-out: HCT-116 (p53-/-) IC50, Table 19A, HCT-116 p53-/-.
[8] abbreviates: HCT-116, read-out: HCT-116 (p53 wild-type) IC50, Table 19A, HCT-116 p53 wild-type.
Where [9] appears, read: LNCaP, Table 19A, LNCAP cells, p53 wild-type, cell growth, read-out: LNCAP (p53 wild-type) IC50.
Where [10] appears, read: PC-3, Table 19A, PC-3 cells, deleted p53, cell growth, read-out: PC-3 (deleted p53) IC50.
The mark [11] stands for this setting: SJSA-1, Table 19A, SJSA-1 cells, p53 wild-type, cell growth, read-out: SJSA-1 (p53 wild-type) IC50.

The structures appear in SMILES notation. Read-outs that look alike come from different tables or passages of the source.

Broadly, the Cmax is the maximum level reached in the sampled fluid or tissue. In general, half-life refers to how long it takes for the measured level to halve. Read a high half-life as slow decline.

Sequence of recombinant human His-tagged MDM2 protein (residues 1-118) (Q00987 1-118): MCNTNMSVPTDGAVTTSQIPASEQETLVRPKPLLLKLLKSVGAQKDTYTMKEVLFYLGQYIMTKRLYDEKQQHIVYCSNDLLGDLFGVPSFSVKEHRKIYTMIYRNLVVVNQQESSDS

As to `CN1CCC(CCNC(=O)C2NC(CC(C)(C)C)C3(C(=O)Nc4cc(Cl)ccc43)C2c2cccc(Cl)c2F)CC1` (centres unmarked) [MI-122], the “% F” value in data set [1] was 14%. For the same compound, the Cmax in data set [1] amounted to 120 ± 112 ng/mL. Moreover, the T1/2 in data set [1] stood at 7.1 ± 1.8 h. In addition, the “oral bioavailability / oral pharmacokinetics in rats (in words)” value in data set [1] is given as “much inferior oral pharmacokinetic parameters”. In addition, the “% of compound remaining when incubated in rat liver microsomes” value in data set [2] (Table 16, 0 min) is reported as 100%; in data set [2] (Table 16, 4 min) it was 96.3%; in data set [2] (Table 16, 6 min) it was 95.6%; in data set [2] (Table 16, 10 min), 87.8%; in data set [2] (Table 16, 15 min), 86.5%; in data set [2] (Table 16, 30 min), 82.7%. Moreover, the “microsomal stability (in words)” value in data set [2] is “improved rat microsomal stability over MI-219”.
Turning to `CN1CCN(CCNC(=O)C2NC(CC(C)(C)C)C3(C(=O)Nc4cc(Cl)ccc43)C2c2cccc(Cl)c2F)CC1` (centres unmarked) [MI-126], in data set [1], the “% F” value was determined as 31%. Moreover, in data set [1], the Cmax stood at 274 ± 82 ng/mL. In data set [1], this compound came in with a T1/2 of 3.8 ± 0.5 h. Further, in data set [1], the “oral bioavailability / oral pharmacokinetics in rats (in words)” value is “much inferior oral pharmacokinetic parameters”. For the same compound, the “% of compound remaining when incubated in rat liver microsomes” value in data set [2] (Table 16, 0 min) came to 100%; in data set [2] (Table 16, 4 min) it was 88.4%; in data set [2] (Table 16, 6 min), 77.2%; in data set [2] (Table 16, 10 min), 65.6%; in data set [2] (Table 16, 15 min), 62.3%; in data set [2] (Table 16, 30 min) it was 60.4%. Moreover, the “microsomal stability (in words)” value in data set [2] is listed as “improved rat microsomal stability over MI-219”.
Turning to `CC(C)(C)C[C@H]1N[C@@H](C(=O)N[C@H]2CC[C@@H](O)C2)[C@H](c2cccc(Cl)c2)[C@@]12C(=O)Nc1cc(Cl)c(F)cc12` [MI-519-27], the IC50 in data set [3] (setting [7]) is greater than 10000 nM; in data set [3] (setting [8]), less than 2000 nM; in data set [4], less than 1000 nM; in data set [5] (setting [9]), less than 2000 nM; in data set [5] (setting [10]) it was greater than 5000 nM; in data set [5] (setting [11]) it was less than 3000 nM. Moreover, the “% of compound remaining when incubated in rat liver microsomes with NADPH” value in data set [2] (0 min) was 100.00%; in data set [2] (5 min), 57.28%; in data set [2] (10 min), 31.78%; in data set [2] (15 min), 19.34%; in data set [2] (30 min), 5.81%; in data set [2] (45 min), 2.49%. For the same compound, the “% of compound remaining when incubated in rat liver microsomes with NADPH” value in data set [2] (60 min) is 2.13%. In addition, the half-life in data set [2] (rat, liver microsomes, rat liver microsomes with NADPH) amounted to 6.05 min; in data set [6] (human, liver microsomes, human liver microsomes with NADPH), 5 min. Besides, the “% of compound remaining when incubated in human liver microsomes with NADPH” value is listed as 100.00% in data set [6] (0 min); 52.96% in data set [6] (5 min); 25.03% in data set [6] (10 min); 11.38% in data set [6] (15 min); 2.30% in data set [6] (30 min); 1.42% in data set [6] (45 min). In data set [6] (60 min), the “% of compound remaining when incubated in human liver microsomes with NADPH” value is 0.77%.
Consider `CC(C)N1CCN(CCCNC(=O)[C@@H]2N[C@H](CC(C)(C)C)[C@]3(C(=O)Nc4cc(Cl)ccc43)[C@H]2c2cccc(Cl)c2F)CC1` [MI-519-45], for which the IC50 in data set [3] (setting [7]) is 6900 ± 1900 nM; in data set [3] (setting [8]) it was 900 ± 300 nM; in data set [4] it was less than 10000 nM; in data set [5] (setting [9]), 1000 ± 200 nM; in data set [5] (setting [10]), 5100 ± 900 nM; in data set [5] (setting [11]), 800 ± 200 nM. Besides, the “% of compound remaining when incubated in rat liver microsomes” value in data set [2] (Table 17, 0 min) was determined as 100%; in data set [2] (Table 17, 4 min) it was 81.1%; in data set [2] (Table 17, 6 min) it was 59.6%; in data set [2] (Table 17, 10 min), 50.7%; in data set [2] (Table 17, 15 min), 44.3%; in data set [2] (Table 17, 30 min) it was 38.5%.
Turning to `CN1CCN(CCCNC(=O)[C@@H]2N[C@H](CC(C)(C)C)[C@]3(C(=O)Nc4cc(Cl)ccc43)[C@H]2c2cccc(Cl)c2F)CC1` [MI-519-46], the IC50 in data set [3] (setting [7]) was 4300 ± 400 nM; in data set [3] (setting [8]), 400 ± 100 nM; in data set [4] it was less than 1000 nM; in data set [5] (setting [9]) it was 500 ± 300 nM; in data set [5] (setting [10]), 3700 ± 400 nM; in data set [5] (setting [11]), 500 ± 300 nM. The “% of compound remaining when incubated in rat liver microsomes” value is listed as 100% in data set [2] (Table 17, 0 min); 83.8% in data set [2] (Table 17, 4 min); 70.9% in data set [2] (Table 17, 6 min); 53.9% in data set [2] (Table 17, 10 min); 53.4% in data set [2] (Table 17, 15 min); 38.3% in data set [2] (Table 17, 30 min).
In the case of `CC(C)(C)C[C@H]1N[C@@H](C(=O)NCCCN2CCN(C3CC3)CC2)[C@H](c2cccc(Cl)c2F)[C@@]12C(=O)Nc1cc(Cl)ccc12` [MI-519-47], the IC50 in data set [3] (setting [7]) was 7800 ± 900 nM; in data set [3] (setting [8]) it was 1100 ± 200 nM; in data set [4], less than 10000 nM; in data set [5] (setting [9]) it was 1100 ± 300 nM; in data set [5] (setting [10]) it was 5700 ± 600 nM; in data set [5] (setting [11]), 1100 nM. Moreover, the “% of compound remaining when incubated in rat liver microsomes” value in data set [2] (Table 17, 0 min) is 100%; in data set [2] (Table 17, 4 min), 80.1%; in data set [2] (Table 17, 6 min) it was 61.1%; in data set [2] (Table 17, 10 min), 45.3%; in data set [2] (Table 17, 15 min) it was 38.1%; in data set [2] (Table 17, 30 min), 34.3%.
As for `CC(C)(C)C[C@H]1N[C@@H](C(=O)NCCN2CCNCC2)[C@H](c2cccc(Cl)c2)[C@@]12C(=O)Nc1cc(Cl)c(F)cc12` [MI-748], the IC50 in data set [3] (setting [7]) was 7600 ± 1000 nM; in data set [3] (setting [8]) it was 900 ± 700 nM; in data set [4], less than 1000 nM; in data set [5] (setting [9]) it was 800 nM; in data set [5] (setting [10]), 4100 ± 100 nM. For the same compound, the “% of compound remaining when incubated in rat liver microsomes” value in data set [2] (Table 17, 0 min) amounted to 100%; in data set [2] (Table 17, 4 min) it was 79.1%; in data set [2] (Table 17, 6 min), 69.7%; in data set [2] (Table 17, 10 min), 61.5%; in data set [2] (Table 17, 15 min), 49.9%; in data set [2] (Table 17, 30 min), 43.7%.
`CN1CCN(CCNC(=O)[C@@H]2N[C@H](CC(C)(C)C)[C@]3(C(=O)Nc4cc(Cl)c(F)cc43)[C@H]2c2cccc(Cl)c2)CC1` [MI-749]: the IC50 is 7800 ± 1300 nM in data set [3] (setting [7]); 1200 ± 400 nM in data set [3] (setting [8]); less than 1000 nM in data set [4]; 1000 ± 100 nM in data set [5] (setting [9]); 5000 ± 500 nM in data set [5] (setting [10]). Also, the “% of compound remaining when incubated in rat liver microsomes” value in data set [2] (Table 17, 0 min) turned out to be 100%; in data set [2] (Table 17, 4 min), 82.9%; in data set [2] (Table 17, 6 min), 58.4%; in data set [2] (Table 17, 10 min), 54.2%; in data set [2] (Table 17, 15 min), 42.7%; in data set [2] (Table 17, 30 min) it was 23%.
Consider `CN1CCN(CCCNC(=O)[C@@H]2N[C@H](CC(C)(C)C)[C@]3(C(=O)Nc4cc(Cl)c(F)cc43)[C@H]2c2cccc(Cl)c2)CC1` [MI-751], for which the IC50 was 6200 ± 1200 nM in data set [3] (setting [7]); 1000 ± 200 nM in data set [3] (setting [8]); less than 1000 nM in data set [4]; 700 ± 200 nM in data set [5] (setting [9]); 3900 ± 900 nM in data set [5] (setting [10]). In addition, the “% of compound remaining when incubated in rat liver microsomes” value in data set [2] (Table 17, 0 min) amounted to 100%; in data set [2] (Table 17, 4 min), 83.1%; in data set [2] (Table 17, 6 min), 62.9%; in data set [2] (Table 17, 10 min), 50.1%; in data set [2] (Table 17, 15 min), 41.6%; in data set [2] (Table 17, 30 min) it was 31.1%.
Take `CC(C)(C)C[C@H]1N[C@@H](C(=O)NCCCN2CCCC2)[C@H](c2cccc(Cl)c2F)[C@@]12C(=O)Nc1cc(Cl)c(F)cc12` [MI-764]: the IC50 is 3800 ± 700 nM in data set [3] (setting [7]); 500 ± 200 nM in data set [3] (setting [8]); less than 1000 nM in data set [4]; 1000 ± 400 nM in data set [5] (setting [9]); 2400 ± 400 nM in data set [5] (setting [10]); 1200 ± 300 nM in data set [5] (setting [11]). For the same compound, the “% of compound remaining when incubated in rat liver microsomes” value in data set [2] (Table 17, 0 min) was determined as 100%; in data set [2] (Table 17, 4 min) it was 87.8%; in data set [2] (Table 17, 6 min), 76.5%; in data set [2] (Table 17, 10 min), 66.5%; in data set [2] (Table 17, 15 min), 63.9%; in data set [2] (Table 17, 30 min) it was 55.8%.

The values above are taken from patent US9079913B2, “Spiro-oxindole MDM2 antagonists” (The Regents of the University of Michigan, priority 2009, dated 2015).
